Measurements from US9833433B1, “Compositions, methods of use, and methods of treatment” (priority 2013, dated 2017).

Columns and labels:
PGE2 [1] = test: PGE2 assay in hippocampal tissue (enzyme immunoassay); format: in vivo, mice
Text: PGE2 in hippocampal tissue was detected using PGE2 enzyme immunoassay kit (Cayman Chemical, Ann Arbor, Mich.) according to the procedure described by the manufacturer (Zhang and Chen, 2008).

[2] = tested on: hippocampal LTP at CA3-CA1 and perforant path synapses; test: Hippocampal LTP (fEPSP recordings in slices, theta-burst stimulation); format: in vivo, mice
Method: Hippocampal LTP both at CA3-CA1 and perforant path synapses were recorded in acutely hippocampal slices and induced by a theta-burst stimulation (TBS) as described previously (Hoffman et al., 2007).
Hippocampal slices were prepared from mice as described previously (Chen et al., 2002; Chen et al., 2012; Fan et al., 2010). Briefly, after decapitation, brains were rapidly removed and placed in cold oxygenated (95% O2, 5% CO2) artificial cerebrospinal fluid (ACSF) containing: 125.0 NaCl, 2.5 KCl, 1.0 MgCl2, 25.0 NaHCO3, 1.25 NaH2PO4, 2.0 CaCl2, 25.0 glucose, 3 pyruvic acid, and 1 ascorbic acid. Slices were cut at a thickness of 350-400 μm and transferred to a holding chamber in an incubator containing ACSF at 36° C. for 0.5 to 1 hour, and maintained in an incubator containing oxygenated ACSF at room temperature (˜22-24° C.) for >1.5 h before recordings. Slices were then transferred to a recording chamber where they were continuously perfused with 95% O2, 5% CO2-saturated standard ACSF at ˜32-34° C. Individual pyramidal and dentate granule neurons were viewed with an upright microscope (Olympus BX51WI) fitted with a 60× water-immersion objective and differential interference contrast (DIC) optics.
Field EPSP (fEPSP) recordings both at CA3-CA1 and perforant path synapses in response to stimuli at a frequency of 0.05 Hz were made using an Axoclamp-2B patch-clamp amplifier (Molecular Devices, CA) in bridge mode. Recording pipettes were pulled from borosilicate glass with a micropipette puller (Sutter Instrument), filled with artificial ACSF (2-4 MΩ). […]

spatial memory = test: Morris water maze test (spatial memory); format: in vivo, mice; conditions: NS398 10 mg/kg + Δ^9-THC 10 mg/kg once a day for 7 days
Method: (§1) The classic Morris water maze and fear conditioning tests were performed to determine spatial and fear memory as described previously (Chen et al., 2012). The ‘open field’ test was conducted to detect the locomotor activity and the bar test was used to detect catalepsy (Egashira et al., 2007).
The classic Morris water maze test was used to determine spatial memory as described previously (Chen et al., 2012). A circular water tank (diameter 120 cm and 75 cm in high) was filled with water and the water was made opaque with non-toxic white paint. A round platform (diameter 15 cm) was hidden 1 cm beneath the surface of the water at the center of a given quadrant of the water tank. COX-2 KO and WT mice received training in the Morris water maze for 5 days without any treatments (naïve). […] For each trial, the mouse was released from the wall of the tank and allowed to search, find, and stand on the platform for 10 seconds within the 60-second trial period. […] During the probe test, the platform was removed from the pool, and the task performances were recorded for 60 seconds by a video-camera and the task performances, including swimming paths, speed, and time spent in each quadrant using an EthoVision video tracking system (Noldus). The time spent in each quadrant was analyzed.

fear memory = test: Fear conditioning test (contextual memory); format: in vivo, mice; conditions: NS398 10 mg/kg + Δ^9-THC 10 mg/kg once a day for 7 days
Method: as §1
Hippocampus-dependent contextual memory was determined using a fear-conditioning working-station (Coulbourn Instruments, Allentown, Pa.) and a one-trial protocol as describe previously (Chen et al., 2006a; 2006b). Mice were individually put into the shock chamber and allowed to freely explore the environment for 150 seconds. Immediately after this, a tone at 90 dB and 2,800 Hz (CS) was delivered for 30 seconds, and at the last 2 seconds a foot shock at 0.8 mA was delivered to the mice for 2 seconds (US). After the pairing of CS/US, mice were allowed to stay in the chamber for another 30 seconds and then returned to their home cages. Then the animals started receiving vehicle, Δ^9-THC (10 mg/kg), NS398 (10 mg/kg), Δ^9-THC+NS398 once a day for 7 days. Fear memory test was conducted 24 hours after the cessation of the last injections. For contextual conditioning, mice were individually put back into the chamber where they received the shock and the freezing response was recorded for 5 minutes with a sampling method at an interval of 5 seconds. […]

[3] = tested on: dendritic spines of CA1 pyramidal neurons; test: Two-photon imaging of dendritic spines in CA1 pyramidal neurons; format: in vivo, mice; conditions: NS398+Δ^9-THC
Method: Morphology of dendritic spines in hippocampal CA1 pyramidal neurons was determined in GFP-expressing transgenic mice using a two-photon laser scanning microscope as described previously (Chen et al., 2012). Shape, size, and density of spines were measured from the three-dimensional reconstructions using NeuronStudio Version 0.9.92.
Morphology of dendritic spines in hippocampal CA1 pyramidal neurons was determined in GFP-expressing transgenic mice treated with vehicle, Δ^9-THC or NS398+Δ^9-THC using a two-photon laser scanning microscope (Chameleon hands-free ultrafast Ti: sapphire laser with an Olympus scan head) with Olympus FLUOVIEW 300 software (Chen et al., 2012). Shape (thin, mushroom, or stubby), size, density, and volume of spines were measured from the three-dimensional reconstructions (Z stacks: 1μ step for the whole cell and 0.1μ step for a segment of dendrites) using AutoQuant X2 or 3D deconvolution plugin of Image J (http://bigwww.epfl.ch/algorithms/deconvolutionlab) and NeuronStudio (for 3D reconstruction of imaged dendritic spines, Version 0.9.92; http://research.mssm.edu/cnic/tools-ns.html, CNIC, Mount Sinai School of Medicine). […] The following parameters were used in analyzing and quantifying spines using NeuronStudio: Voxel size was set as 0.029*0.029*0.3 μm. […]

[4] = tested on: synaptic release of glutamate; test: Miniature spontaneous EPSCs (mEPSCs) in cultured hippocampal neurons; format: cell-based; conditions: NS398 10 μM + Δ^9-THC 3 μM; 24 hrs
GluA1, GluN2A, GluN2B = test: Immunostaining of synaptic and extrasynaptic glutamate receptor subunits in hippocampal CA1; conditions: NS398+Δ^9-THC
PGE2 [5] = conditions: earlier studies (Burstein et al., 1989; Fairbairn and Pickens; Perez-Reyes et al., 1991); cited from earlier work
COX-2 [6] = test: Hippocampal COX-2 expression in mice (immunoblot); format: in vivo
COX-2 [7] = test: COX-2 expression in neuronal and astroglial cell-enriched cultures; format: cell-based; conditions: assayed 12 hr after treatments
Method: Relative pure hippocampal neurons (astroglial cells<2%), mixed neurons and astroglial cells (astroglial cells ˜10%), and astroglial cell-enriched (astroglial cells>95%), and NG108-15 cell cultures were made as described previously (Sang et al, 2005; Zhang and Chen, 2008).
Primary hippocampal neurons (astroglial cells<2%), mixed neurons and astroglial cells (astroglial cells ˜10%), astroglial cell-enriched (astroglial cells>95%) and NG108-15 cells were cultured as described previously (Sang et al, 2005; Zhang and Chen, 2008). The extent of neurons and astroglial cells in culture were controlled by different treatments, which was estimated by using immunostaining with NeuN, a neuronal marker, glial fibrillary acidic protein (GFAP), an astrocytic marker, and OX-42, a microglial marker, in conjunction with DAPI staining.

CS(=O)(=O)Nc1ccc([N+](=O)[O-])cc1OC1CCCCC1 [NS398]
effect on CP55,940-induced increase in PGE2 (PGE2 [1]; NS398 10 mg/kg 30 min prior to CP 10 mg/kg): could be blocked | effect on LPS-reduced hippocampal LTP ([2]; LPS 3 mg/kg + NS398 10 mg/kg once a day for 7 days): prevented | effect on Δ^9-THC-decreased hippocampal LTP ([2]; NS398 10 mg/kg 30 min before Δ^9-THC 10 mg/kg, 7 days, CA3-CA1 and perforant path): rescued decreased hippocampal LTP | effect on Δ^9-THC-impaired spatial memory (spatial memory): occluded by COX-2 inhibition | effect on Δ^9-THC-impaired fear memory (fear memory): attenuated by COX-2 inhibition | effect on Δ^9-THC-decreased dendritic spine density [3]: prevented by inhibition of COX-2 | effect on Δ^9-THC-enhanced synaptic release of glutamate [4]: blocked by inhibition of COX-2 | effect on Δ^9-THC-decreased glutamate receptor expression (GluA1, GluN2A, GluN2B): prevented by inhibition of COX-2

COc1ccc2c(c1)c(CC(=O)O)c(C)n2C(=O)c1ccc(Cl)cc1 [indomethacin]
effect on marijuana- or Δ^9-THC-induced elevation of PGE2 in circulation and the brain (PGE2 [5]): could be antagonized

CCCCCCC(C)(C)c1ccc([C@@H]2C[C@H](O)CC[C@H]2CCCO)c(O)c1 [CP55,940]
hippocampal COX-2 expression after cannabinoid injection (COX-2 [6]; single i.p. injection, CP55,940 10 mg/kg, detected 4 hrs): more pronounced effects on COX-2 expression and PGE2 synthesis | hippocampal PGE2 production after cannabinoid injection (PGE2 [1]; 10 mg/kg, detected 4 hrs after injection): more pronounced effects on COX-2 expression and PGE2 synthesis

Cc1c(C(=O)NN2CCCCC2)nn(-c2ccc(Cl)cc2Cl)c1-c1ccc(Cl)cc1 [Rimonabant]
effect on Δ^9-THC-induced increase in COX-2 in the hippocampus (COX-2 [6]; RIM 5 mg/kg 30 min prior to Δ^9-THC 10 mg/kg, detected 4 hr after Δ^9-THC): blocked | effect on Δ^9-THC-induced increase in COX-2 in neurons and astroglial cells in culture (COX-2 [7]): blocked
